Test results: the NIST ThermoML archive (doi:10.1021/acs.jced.7b00712)
± gives the expanded uncertainty stated by the source.

Conditions: Fluid (supercritical or subcritical phases), Brillouin light scattering

**Q.** Which results are given for CC(C)CC(C)(C)C [2,2,4-trimethylpentane]?
**A.** speed of sound (543.74 K, 6000 kPa): 314.4 ± 4.6 m/s; speed of sound (544.07 K, 10000 kPa): 409.3 ± 5.6 m/s; speed of sound (544.08 K, 12000 kPa): 448.4 ± 6 m/s; speed of sound (547.77 K, 3000 kPa): 135.2 ± 7.2 m/s; speed of sound (548.38 K, 4000 kPa): 216.1 ± 6 m/s; speed of sound (548.79 K, 5000 kPa): 262.4 ± 4.9 m/s; speed of sound (548.93 K, 12000 kPa): 439.8 ± 5.9 m/s; speed of sound (548.94 K, 6000 kPa): 301.9 ± 4.5 m/s; speed of sound (549.02 K, 10000 kPa): 399.6 ± 5.5 m/s; speed of sound (552.48 K, 3000 kPa): 103.8 ± 6.9 m/s; speed of sound (553.35 K, 4000 kPa): 194.1 ± 6.5 m/s; speed of sound (553.8 K, 5000 kPa): 247.6 ± 5 m/s; speed of sound (553.96 K, 6000 kPa): 286.4 ± 4.4 m/s; speed of sound (554.24 K, 12000 kPa): 430.8 ± 5.8 m/s; speed of sound (554.27 K, 10000 kPa): 392.6 ± 5.5 m/s; speed of sound (558.01 K, 3000 kPa): 97.9 ± 5.6 m/s; speed of sound (558.52 K, 10000 kPa): 386.7 ± 5.4 m/s; speed of sound (558.54 K, 12000 kPa): 426 ± 5.7 m/s; speed of sound (559.12 K, 6000 kPa): 272.8 ± 4.8 m/s; speed of sound (559.16 K, 5000 kPa): 232.4 ± 5 m/s; speed of sound (559.18 K, 4000 kPa): 172.1 ± 6 m/s; speed of sound (563.28 K, 4000 kPa): 154.4 ± 5.4 m/s; speed of sound (564.27 K, 5000 kPa): 214.5 ± 5.1 m/s; speed of sound (564.68 K, 12000 kPa): 415.3 ± 5.6 m/s; speed of sound (564.81 K, 10000 kPa): 374.5 ± 5.3 m/s; speed of sound (564.85 K, 6000 kPa): 257.3 ± 4.2 m/s; speed of sound (567.24 K, 3000 kPa): 109.9 ± 2.6 m/s; speed of sound (568.08 K, 4000 kPa): 137.3 ± 4.3 m/s; speed of sound (569.24 K, 5000 kPa): 201.2 ± 5.2 m/s; speed of sound (569.81 K, 12000 kPa): 404.7 ± 5.5 m/s; speed of sound (570.06 K, 6000 kPa): 244.3 ± 4.1 m/s; speed of sound (570.54 K, 10000 kPa): 362.4 ± 5.2 m/s; speed of sound (570.76 K, 3000 kPa): 112.7 ± 1.6 m/s; speed of sound (573.32 K, 4000 kPa): 122.1 ± 5.4 m/s; speed of sound (574.23 K, 5000 kPa): 187 ± 5.2 m/s; speed of sound (574.7 K, 6000 kPa): 233 ± 4 m/s; speed of sound (574.8 K, 12000 kPa): 398.5 ± 5.5 m/s; speed of sound (575.07 K, 10000 kPa): 354 ± 5.1 m/s; speed of sound (576.9 K, 3000 kPa): 117.3 ± 1.6 m/s; speed of sound (578.09 K, 4000 kPa): 114.9 ± 2.8 m/s; speed of sound (579 K, 5000 kPa): 173.2 ± 5 m/s; speed of sound (579.62 K, 6000 kPa): 222.1 ± 3.9 m/s; speed of sound (580.26 K, 12000 kPa): 388.5 ± 5.4 m/s; speed of sound (580.32 K, 10000 kPa): 343.6 ± 5 m/s; speed of sound (582.97 K, 4000 kPa): 114.7 ± 2.2 m/s; speed of sound (583.34 K, 3000 kPa): 121.9 ± 1.7 m/s; speed of sound (584.13 K, 5000 kPa): 161.6 ± 4.5 m/s; speed of sound (584.82 K, 6000 kPa): 208.9 ± 3.9 m/s; speed of sound (585.19 K, 12000 kPa): 379.7 ± 5.2 m/s; speed of sound (585.35 K, 10000 kPa): 337.5 ± 5 m/s; speed of sound (586.96 K, 3000 kPa): 125 ± 1.8 m/s; speed of sound (587.1 K, 4000 kPa): 116 ± 1.8 m/s; speed of sound (588.18 K, 5000 kPa): 151.1 ± 4 m/s; speed of sound (588.98 K, 6000 kPa): 199.3 ± 3.8 m/s; speed of sound (589.39 K, 12000 kPa): 374.8 ± 5.2 m/s; speed of sound (589.65 K, 10000 kPa): 331.2 ± 4.9 m/s; speed of sound (592.49 K, 4000 kPa): 117.9 ± 1.6 m/s; speed of sound (592.79 K, 3000 kPa): 130.8 ± 2 m/s; speed of sound (593.39 K, 5000 kPa): 140.6 ± 3.6 m/s; speed of sound (594.09 K, 6000 kPa): 191.7 ± 3.7 m/s; speed of sound (594.93 K, 12000 kPa): 363.8 ± 5.1 m/s; speed of sound (595.15 K, 10000 kPa): 318.7 ± 4.8 m/s; speed of sound (597.57 K, 4000 kPa): 119.2 ± 1.6 m/s; speed of sound (597.98 K, 3000 kPa): 136.1 ± 2.2 m/s; speed of sound (598.54 K, 5000 kPa): 135.1 ± 3.2 m/s; speed of sound (599.18 K, 6000 kPa): 184.6 ± 3.6 m/s; speed of sound (600.35 K, 10000 kPa): 311.6 ± 4.7 m/s; speed of sound (600.58 K, 12000 kPa): 356.1 ± 5 m/s; speed of sound (602.34 K, 4000 kPa): 121.2 ± 1.6 m/s; speed of sound (602.56 K, 3000 kPa): 141.1 ± 2.4 m/s; speed of sound (603.22 K, 5000 kPa): 132.5 ± 2.8 m/s; speed of sound (604.02 K, 6000 kPa): 175.1 ± 3.5 m/s; speed of sound (604.68 K, 12000 kPa): 350.2 ± 4.9 m/s; speed of sound (605.01 K, 10000 kPa): 304.3 ± 4.6 m/s; speed of sound (607.09 K, 4000 kPa): 124.3 ± 1.7 m/s; speed of sound (607.67 K, 5000 kPa): 131 ± 2.4 m/s; speed of sound (607.97 K, 3000 kPa): 145.8 ± 2.5 m/s; speed of sound (608.43 K, 6000 kPa): 167.7 ± 3.4 m/s; speed of sound (609.5 K, 12000 kPa): 342.6 ± 4.8 m/s; speed of sound (609.62 K, 10000 kPa): 295.9 ± 4.5 m/s; speed of sound (612.44 K, 4000 kPa): 129.9 ± 1.8 m/s; speed of sound (612.74 K, 5000 kPa): 131.9 ± 2.2 m/s; speed of sound (613.31 K, 3000 kPa): 150.4 ± 2.5 m/s; speed of sound (613.49 K, 6000 kPa): 164.3 ± 3.3 m/s; speed of sound (614.69 K, 10000 kPa): 286.8 ± 4.4 m/s; speed of sound (614.9 K, 12000 kPa): 336.6 ± 4.8 m/s; speed of sound (617.81 K, 4000 kPa): 134.8 ± 1.9 m/s; speed of sound (618.08 K, 5000 kPa): 135 ± 2 m/s; speed of sound (618.6 K, 6000 kPa): 159.9 ± 3.2 m/s; speed of sound (618.84 K, 3000 kPa): 154.9 ± 2.6 m/s; speed of sound (619.6 K, 12000 kPa): 329.3 ± 4.7 m/s; speed of sound (619.8 K, 10000 kPa): 281.3 ± 4.3 m/s; speed of sound (622.75 K, 4000 kPa): 139 ± 2 m/s; speed of sound (622.82 K, 5000 kPa): 137.2 ± 1.9 m/s; speed of sound (623.43 K, 6000 kPa): 156.1 ± 3.1 m/s; speed of sound (623.75 K, 3000 kPa): 159.5 ± 2.6 m/s; speed of sound (624.61 K, 12000 kPa): 321.5 ± 4.6 m/s; speed of sound (624.7 K, 10000 kPa): 276.4 ± 4.3 m/s; speed of sound (627.69 K, 5000 kPa): 141.2 ± 1.9 m/s; speed of sound (628.07 K, 4000 kPa): 145.5 ± 2.1 m/s; speed of sound (628.11 K, 6000 kPa): 153.4 ± 2.9 m/s; speed of sound (629.13 K, 10000 kPa): 269.4 ± 4.2 m/s; speed of sound (629.2 K, 12000 kPa): 316.9 ± 4.5 m/s; speed of sound (629.42 K, 3000 kPa): 164 ± 2.5 m/s; speed of sound (631.25 K, 5000 kPa): 143.4 ± 1.9 m/s; speed of sound (631.51 K, 6000 kPa): 156 ± 2.3 m/s; speed of sound (632.19 K, 4000 kPa): 148.1 ± 2.1 m/s; speed of sound (633.71 K, 3000 kPa): 166.1 ± 2.6 m/s
